Source: publication PMC7934941, “Pharmacological chaperone action in humanized mouse models of MC4R-linked obesity” (JCI Insight, 2021)

Experiments:
[1] = target: T1, R165W-hMC4R (Homo sapiens, UniProt P32245, R165W); assay: Melanocortin agonist cAMP production, mutant receptor; type: cell-based
T1 construct: expressed in transfected cells
Procedure: (§1) Data are the means ± SEM of 3 independent experiments.
(§2) Cells were kept on ice for 5 minutes before proceeding to cAMP measurement. […] For all assays, plates were then put at –80°C at least 90 minutes and thawed at RT on Heidolph Titramax 100 shaker at speed 1050 rpm. Cell lysates were then transferred to 384-well plates, lysed, and incubated with cAMP labeled with the dye d2 and anti-cAMP M antibody labeled with Cryptate (cAMP dynamic-2 kit, cisbio) according to the manufacturer’s protocol. Reading of the homogeneous time-resolved fluorescence signal was performed on an Artemis time-resolved fluorescence resonance energy transfer plate reader (Cosmo Bio USA).

[2] = target: T2, WT-hMC4R (Homo sapiens, UniProt P32245); assay: Melanocortin agonist cAMP production, WT receptor; type: cell-based; details: % of Emax of untreated WT-hMC4R upon 1 μM NDP-α-MSH
T2 construct: expressed in transfected cells
T2 sequence (P32245 whole entry): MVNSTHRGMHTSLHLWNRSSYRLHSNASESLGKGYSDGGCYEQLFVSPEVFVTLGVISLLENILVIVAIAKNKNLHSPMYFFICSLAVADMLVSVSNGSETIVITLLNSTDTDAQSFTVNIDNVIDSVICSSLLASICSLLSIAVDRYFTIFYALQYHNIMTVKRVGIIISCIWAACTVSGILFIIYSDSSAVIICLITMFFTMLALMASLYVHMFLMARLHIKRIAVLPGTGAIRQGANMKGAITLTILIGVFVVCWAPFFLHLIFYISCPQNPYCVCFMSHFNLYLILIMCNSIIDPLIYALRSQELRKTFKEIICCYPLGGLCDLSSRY
Procedure: as §1, §2

[3] = test system: hMC4R-KI, loxTB MC4R-null and nontransgenic mice; assay: Acute icv melanocortin agonist sensitivity, nocturnal food intake; type: in vivo, mouse; details: homozygous loxTB MC4R-null mice
Procedure: (A–C) Immunohistochemical labeling of MC4R-positive neurons. […] Inset in A: higher power magnification of boxed areas containing GFP immune reactive neurons (brown cytoplasmic reaction product). Arrows in the center and right insets indicate GFP-positive neurons. Scale bars: 100 μm (A), 50 μm (A, inset), […] (B) and 10 μm (C). […] Food intake was measured 4 hours postadministration in dark phase and reported in percentage.
Food consumption was then assessed between ZT10 and ZT15 (3 hours after lights off). Food consumption was then normalized relative to the basal food consumption measured the day before for each mouse (% food intake vs. basal) and is expressed as means ± SEM.
The guide cannulas were secured with screws and cranioplastic cement (Dentsply Canada). To prevent clogging and to reduce the potential for brain infection, sterile obturators (PlasticsOne) were inserted into the guide cannulas. Appropriate cannula placement was functionally verified before experiments using the dipsogenic effects of angiotensin 2 injections (5 ng) as positive control, 5 days after surgery.
The day prior to agonist sensitivity assay, basal food consumption was measured individually between Zeitgeber time 10 (ZT10) (10 hours after lights on) and ZT15 (3 hours after lights off). […] Food consumption was then assessed between ZT10 and ZT15. […]

[4] = target: mouse melanocortin type 4 receptor (mouse) (UniProt P56450); details: scale: pEC50
mouse melanocortin type 4 receptor (mouse), sequence (P56450 whole entry): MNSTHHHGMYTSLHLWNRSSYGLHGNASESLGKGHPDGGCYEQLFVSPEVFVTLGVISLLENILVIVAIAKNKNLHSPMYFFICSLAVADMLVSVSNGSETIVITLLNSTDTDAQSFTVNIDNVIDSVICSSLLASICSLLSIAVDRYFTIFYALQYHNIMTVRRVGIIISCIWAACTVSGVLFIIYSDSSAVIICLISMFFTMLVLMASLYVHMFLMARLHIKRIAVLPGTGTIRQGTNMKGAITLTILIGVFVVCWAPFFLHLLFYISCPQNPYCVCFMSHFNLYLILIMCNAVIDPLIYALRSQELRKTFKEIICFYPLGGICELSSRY

[5] = target: human melanocortin type 4 receptor (WT) (human) (UniProt P32245); details: scale: pEC50
human melanocortin type 4 receptor (WT) (human), sequence (P32245 whole entry): as the sequence (P32245 whole entry) above

T1 sequence (P32245 whole entry R165W): as the sequence (P32245 whole entry) above, with R165W counted along it

Emax [1] [%]	Emax ([2]; WT-hMC4R after 10 μM UM0130866 for 15 hours, washed) [%]	Emax ([2]; WT-hMC4R, untreated) [%]	potency (pEC50) of α-MSH to activate Gs, BRET-based biosensor directly monitoring Gs activation [4]	potency (pEC50) of α-MSH to activate Gs, BRET-based biosensor directly monitoring Gs activation [5]	Molecule	food intake response (ZT10-ZT15) [3]
115 ± 43.5	92.7 ± 15.8	112 ± 2.55			CSCC[C@H](NC(=O)[C@H](CCCNC(=N)N)NC(=O)[C@H](Cc1ccc(O)cc1)NC(=O)[C@@H]1CCCN1C(=O)CNC(=O)[C@H](CCC(=O)O)NC(=O)[C@H](CC(=O)O)NC(=O)[C@H](CCCCN)NC(=O)[C@H](CCCCN)NC(=O)[C@H](CCC(=O)O)NC(=O)[C@H](C)N)C(=O)N[C@@H](CCC(=O)O)C(=O)N[C@@H](Cc1c[nH]cn1)C(=O)N[C@@H](Cc1ccccc1)C(=O)N[C@@H](CCCNC(=N)N)C(=O)N[C@@H](Cc1c[nH]c2ccccc12)C(=O)NCC(=O)N[C@@H](CO)C(=O)N1CCC[C@H]1C(=O)N1CCC[C@H]1C(=O)N[C@@H](CCCCN)C(=O)N[C@@H](CC(=O)O)C(=O)O [β-MSH]	absence of anorexic response
			8.64	7.48	α–melanocyte-stimulating hormone (peptide)	
